Entries after “also recorded” stand apart in the source; their conditions may differ.
How the values were obtained:
[1] = tested on: C57BL/6 mice with hair follicles in the telogen phase; experiment: Hair growth in hair-removed C57BL/6 mice, evaluated on Day 21 (visual/Image J, H&E); format: in vivo; details: for skin area converted to black (anagen phase) with respect to the total hair-removed skin area / skin area with actual hair growth as a percentage of the total hair removal skin area: 50 μL
Description: 7-week-old C57BL/6 mice (Orient Bio, Korea) with hair follicles in the telogen phase were purchased and the experiment was performed. The experiment was conducted using 4 mice each for 6 experimental groups of a vehicle-applied control group (topical control), a Minoxidil-applied positive control group (topical Minoxidil), an Cp 1-applied group (topical Cp 1), a candlelit-shaped microneedle control group (CMN control), an Cp 1 microneedle administration group (Cp 1 conv-DMN) and an Cp 1 candlelit-shaped microneedle administration group (Cp 1 CMN).
In the topical formulation, polyethylene glycol 400 (PEG 400; Sigma-Aldrich, St. Louis, MO, USA) and ethanol (99.5°; Sigma-Aldrich) were mixed in 50 μL solution with a ratio of 7:3 (v/v) containing 2% (w/v) of minoxidil (Sigma-Aldrich) and 0.002% (w/v) of Cp-1 (2 μg per day). The topical formulation groups' 50 μL solutions were administered twice a day.
The experiment was started in a pink skin condition by removing the hair on the back of the mice, and the drug application was carried out twice a day for 21 days, and when injected using a microneedle, it was injected once every 2 days and was not injected on last Day 21.
On Day 21 of the administration, the area in which the color of the back of the mice was changed to black, that is, the area converted to the anagen phase among the shaved areas was analyzed with the naked eye and the Image J software (National Institutes of Health, Bethesda, MD, USA), which is an image analysis program.
On Day 21 of the administration, the ratio of actual hair growth on the back of the mice was analyzed with the naked eye and the Image J software (National Institutes of Health, Bethesda, MD, USA), which is an image analysis program.
On Day 21 of the administration, the distribution rate by hair growth cycle in mice was compared.

β-catenin = experiment: Immunohistochemical staining of mouse back skin, β-catenin; format: in vivo, mice; details: Day 21
Description: (§1) The development of skin tissue, which becomes the surrounding support for hair growth, plays an important role in hair growth. As such, in order to compare the degree of the development of skin tissue in 6 experimental groups of the vehicle-applied control group (topical control), the Minoxidil-applied positive control group (topical minoxidil), the Cp 1 application group (topical Cp 1), the candlelit-shaped microneedle control group (CMN control), the Cp 1 microneedle administration group (Cp 1 conv-DMN) and the Cp 1 candlelit-shaped microneedle administration group (Cp 1 CMN), β-catenin and PCNA, which are biomarkers indicating skin tissue proliferation, the vascular endothelial cell marker MECA 32 showing the development of the vascular network around the mouse hair follicle, and the dermal papilla cell (DP) marker Versican (VCAN), which is generated in the hair follicle anagen phase showing the hair follicle anagen phase inducing effect, were observed by immunohistochemical staining. To this end, as in Example 1-2, the back tissue of the mice was collected on Day 21, then the frozen tissue was sectioned, and the fluorescent material-conjugated antibody was treated on the tissue, and then the fluorescence images were analyzed. The antibodies used were β-catenin (BD Biosciences, San Jose, CA, USA), PCNA (LSBIO, Seattle, WA, USA), VCAN (LSBIO, Seattle, WA, USA) and MECA-32 (Novus Biologicals, CA, USA), respectively.

MECA 32 = experiment: Immunohistochemical staining of mouse back skin, vascular endothelial cell marker MECA 32; format: in vivo, mice; details: Day 21
Description: as §1

Versican (VCAN) = experiment: Immunohistochemical staining of mouse back skin, dermal papilla cell marker Versican (VCAN); format: in vivo, mice; details: Day 21
Description: as §1

[2] = topical application twice a day
[3] = topical application twice a day, 2% (w/v) minoxidil or 0.002% (w/v) Cp 1
[4] = general microneedle or candlelit-shaped microneedle

Row | SMILES | skin thickness and hair thickness ([1]; administered using microneedles, especially candlelit-shaped microneedles) | hair growth effect and skin tissue development (visual observation, H&E) [1, 2] | skin area converted to black (anagen phase) with respect to the total hair-removed skin area [1, 3] [%] | skin area with actual hair growth as a percentage of the total hair removal skin area [1, 3] [%] | skin thickness and hair thickness ([1]; topical application, compared to topical Minoxidil) | β-catenin expression (β-catenin; Cp 1 applied, compared with Minoxidil applied) | β-catenin expression (β-catenin; administered using a candlelit-shaped microneedle) | β-catenin expression (β-catenin; administered with a microneedle, compared with Minoxidil applied) | expression level of MECA 32 (rank order of groups) (MECA 32; [4]) | expression level of MECA 32 (rank order of groups) (MECA 32; topical application) | expression level of VCAN (rank order of groups) (Versican (VCAN); [4]) | expression level of VCAN (rank order of groups) (Versican (VCAN); topical application) | hair follicles converted to the anagen phase (distribution rate by hair growth cycle, H&E) [1, 3] [%]
1 | CCCOc1ccc(S(=O)(=O)N2CCC(CCO[N+](=O)[O-])(CCO[N+](=O)[O-])CC2)cc1-c1nc2c(CCC)cn(CC)c2c(=O)[nH]1 [Cp 1, (1-((3-(5-ethyl-4-oxo-7-propyl-4,5-dihydro-3H-pyrrolo[3,2-d]pyrimidin-2-yl)-4-propoxyphenyl)sulfonyl)piperidine-4,4-diyl)bis(ethane-2,1-diyl) dinitrate] | more significantly improved skin thickening effect and hair thickness improvement effect | increased skin thicknesses along with the hair growth effect; also recorded: more effective than Minoxidil treatment | 92.1±3.0 | 61.0±14.0 | more improved skin thickening effect and hair thickness improvement effect | higher | highest β-catenin expression effect | higher | increased in the order of Minoxidil application. Cp 1 application, Cp 1 administration using a general microneedle and M-19 administration using a candlelit-shaped microneedle | increased in the order of Minoxidil application. Cp 1 application, Cp 1 administration using a general microneedle and M-19 administration using a candlelit-shaped microneedle | increased in the order of Minoxidil application, Cp 1 application, Cp 1 administration using a general microneedle and M-19 administration using a candlelit-shaped microneedle | increased in the order of Minoxidil application, Cp 1 application, Cp 1 administration using a general microneedle and M-19 administration using a candlelit-shaped microneedle | –
2 | Nc1cc(N2CCCCC2)nc(N)[n+]1[O-] [Minoxidil, 2,4-diamino-6-piperidinopyrimidine-3-oxide, reference compound] | – | increased skin thicknesses along with the hair growth effect | 65.3±22.3 | 38.4±17.1 | – | – | – | – | – | increased in the order of Minoxidil application. Cp 1 application, Cp 1 administration using a general microneedle and M-19 administration using a candlelit-shaped microneedle | – | increased in the order of Minoxidil application, Cp 1 application, Cp 1 administration using a general microneedle and M-19 administration using a candlelit-shaped microneedle | 52.5±1.3

Source: patent US20250195522A1, “TRANSDERMAL DOSAGE FORM, FOR PROMOTING LOCAL BLOOD FLOW, OF DUAL-ACTING PDE5 INHIBITOR/ORGANIC NITRATE ESTER” (UIF (University Industry Foundation), Yonsei University, priority 2022, published 2025)
